In US20080247991A1, “Solution Additives For the Attenuation of Protein Aggregation” (priority 2004, published 2008):
Values belong to the molecule of their own block, whether it stands above or below them.

Assays:
[1] = biological target: T1, insulin binding to immobilized monoclonal anti-insulin (Homo sapiens, UniProt P01308); assay: Surface plasmon resonance (Biacore 3000): globular protein association/dissociation kinetics in buffer with additive; conditions: for ka / kd: pH 7.4, estimated error 15%
T1 construct: purchased Sigma-Aldrich (insulin); Fitzgerald Industries (antibody) I8530; 10-130 clone M322214
Description: Surface plasmon resonance experiments were conducted to measure the effect of added ArgHCl and GuHCl on the kinetics of globular protein association and dissociation versus an equimolar salt control (NaCl). The data set shown in the figure is a composition of 8 different concentration runs plus replicates, for a total of 16 runs. At t=140 sec, the flow cell with immobilized anti-insulin was exposed to a constant concentration of insulin in the range of 2 to 188 nM for 3 minutes. During this 3 minutes, the antibody and antigen were free to associate and dissociate. The net reaction is the binding of free antigen in solution, resulting in an increase in detector response proportional to the mass of antigen bound. At t=320 sec, the insulin concentration in the flow cell inlet is returned to zero, and the bound antigen then dissociates from the surface. All 16 runs were simultaneously fit to a binding model by minimizing the squared residuals to yield the association and dissociation rate constants, ka and kd. This process was repeated to yield association, dissociation, and equilibrium constant data for the model systems in various buffers as shown in Table 4.
Globular Protein Association Kinetics—Protein association and dissociation rate constants, ka and kd, were measured for globular proteins via surface plasmon resonance on a Biacore 3000 instrument. Monoclonal anti-insulin was immobilized on a Biacore CM5 sensor chip via amine coupling. The amount of immobilized antibody was selected to give a detector response in the range of 50-100 RU when antigen was present. A reference surface was created by activating and deactivating the surface without coupling an antibody to it.
Different concentrations of insulin in the nanomolar range ([…]) were prepared by dilution and injected serially into the antibody-containing and reference flow cells. […] Pocker, Y. & Biswas, Subhasis, B. (1981) Biochemistry 20, 4354-4361. The dissociation rate was sufficiently fast in buffer that a regeneration buffer was not required. Kinetic constants were extracted by simultaneous fitting of ka and kd to each set of sensorgrams using a 1:1 kinetic model in the BIAevaluation 3.0 software package.

[2] = biological target: T2, carbonic anhydrase II (Bos taurus, UniProt P00921); assay: Size exclusion HPLC of multimers formed during refolding of carbonic anhydrase; set-up: purchased Sigma-Aldrich C2522; species or system bovine; conditions: for A2, percentage of total carbonic anhydrase / A3-5, percentage of total carbonic anhydrase / A6-15, percentage of total carbonic anhydrase / M (monomer), percentage of total carbonic anhydrase / Large multimers, percentage of total carbonic anhydrase: 0.5 M additive; for Large multimers, percentage of total carbonic anhydrase: inferred by difference
Description: Size exclusion HPLC experiments were performed to analyze the distribution of multimers formed during refolding. CA was refolded with three different additives, 0.5M NaCl, 0.5M GuHCl, and 0.5M ArgHCl, relative to a base refolding buffers of 0.5M GuHCl, as done in the esterase activity assays above. […] Other than this protein concentration difference, these experiments allow direct comparison of how an additional 0.5M of the three different cations affect refolding.
The samples were not filtered prior to introduction into the HPLC column.
Size Exclusion HPLC—Size exclusion HPLC (SE-HPLC) experiments were performed on a Beckman System Gold HPLC instrument equipped with a Tosohaas G3000SWXL size exclusion column and a UV detector. 30 μl samples were introduced to the column by a constant flow of 1 ml/min mobile phase. Each sample ran for 15 minutes, with carbonic anhydrase eluting between 6 and 10 minutes, depending on its molecular weight and buffer. […] A mixture of lysozyme, carbonic anhydrase, and bovine serum albumin (monomer and dimer) was used as a standard to calibrate molecular weight to retention time. Using this calibration curve and the breakthrough time of the column, the largest multimer that could pass through the column was a 15-mer. When significant mass was missing from a chromatogram, large multimers were quantitated by difference. The presence of large multimers was confirmed via turbidity or dynamic light scattering for each buffer. The instrument was cleaned with 30 μl injections of 4M GuHCl, a denaturing concentration found to dissociate and elute precipitates and large soluble carbonic anhydrase multimers.

[3] = biological target: T2, carbonic anhydrase II; assay: Carbonic anhydrase refolding yield by esterase activity (pNPA); conditions: for α/α0 / α (refolding selectivity parameter, kr/kagg): 0.5 M additive, base buffer 0.5 M GuHCl; for α/α0: relative to 0.5M NaCl; for α (refolding selectivity parameter, kr/kagg): fit to second-order aggregation model; for order of yield of active protein as a function of buffer additive: equimolar (0.5M) additives
Description: Esterase activity assays were performed as a function of initial unfolded protein concentration and buffer composition to determine how equimolar concentrations of NaCl, ArgHCl, and GuHCl each affected refolding yield (FIG. 16).
High concentrations of carbonic anhydrase (>300 μM) were denatured in 6M GuHCl and equilibrated overnight. Refolding was initiated by dilution to 0.5M GuHCl with 50 mM Tris-HCl buffer, pH 7.5. This final GuHCl concentration was selected because it yields a mixture of active, refolded protein and aggregates. The distribution of this mixture was analyzed via esterase activity, size exclusion HPLC, and dynamic light scattering as described above.
Carbonic Anhydrase Esterase Activity—Esterase activity of carbonic anhydrase was assessed using para-nitrophenylacetate (pNPA) as the substrate as described previously. […] Briefly, 10 μl samples of carbonic anhydrase solution were added to 500 μl of Tris-HCl, pH 7.5 and 50 μl of 50 mM pNPA in acetonitrile. Kinetics of hydrolysis of pNPA was observed by the increase in absorbance at 400 nm due to the appearance of the paranitrophenolate ion (pNP^−). In all cases, the observed hydrolysis rate in absorbance units per second (AU/s) under these conditions was constant (pseudo-zero order). Hydrolysis rates were corrected for the hydrolysis of pNPA by the buffer for each type of buffer used. […] The active protein concentration data was reproducible to within 5-8% in replicated experiments.

[4] = biological target: Human insulin (I8530), Sigma-Aldrich (human) (UniProt P01308); assay: SPR; association rate constant in HBS-EP + 0.5 M GuHCl relative to HBS-EP + 0.5 M NaCl
[5] = biological target: Human insulin (I8530), Sigma-Aldrich (human) (UniProt P01308); assay: SPR; dissociation rate constant in HBS-EP + 0.5 M GuHCl relative to HBS-EP + 0.5 M NaCl
[6] = biological target: Human insulin (I8530), Sigma-Aldrich (human) (UniProt P01308); assay: SPR, Biacore 3000, antibody immobilised on CM5, insulin as analyte, KD = kd/ka; HBS-EP + 0.5 M GuHCl
[7] = biological target: Human insulin (I8530), Sigma-Aldrich (human) (UniProt P01308); assay: SPR; association rate constant in HBS-EP + 0.5 M ArgHCl relative to HBS-EP + 0.5 M NaCl
[8] = biological target: Human insulin (I8530), Sigma-Aldrich (human) (UniProt P01308); assay: SPR, Biacore 3000, antibody immobilised on CM5, insulin as analyte, KD = kd/ka; HBS-EP + 0.5 M NaCl
[9] = biological target: Human insulin (I8530), Sigma-Aldrich (human) (UniProt P01308); assay: SPR, Biacore 3000, antibody immobilised on CM5, insulin as analyte, 1:1 model; HBS-EP + 0.5 M GuHCl
[10] = biological target: Human insulin (I8530), Sigma-Aldrich (human) (UniProt P01308); assay: SPR; dissociation rate constant in HBS-EP + 0.5 M ArgHCl relative to HBS-EP + 0.5 M NaCl
[11] = biological target: Human insulin (I8530), Sigma-Aldrich (human) (UniProt P01308); assay: SPR, Biacore 3000, antibody immobilised on CM5, insulin as analyte, 1:1 model; HBS-EP + 0.5 M ArgHCl
[12] = biological target: Human insulin (I8530), Sigma-Aldrich (human) (UniProt P01308); assay: SPR, Biacore 3000, antibody immobilised on CM5, insulin as analyte, KD = kd/ka; HBS-EP + 0.5 M ArgHCl
[13] = biological target: Human insulin (I8530), Sigma-Aldrich (human) (UniProt P01308); assay: SPR, Biacore 3000, antibody immobilised on CM5, insulin as analyte, 1:1 model; HBS-EP + 0.5 M NaCl
[14] = 0.5 M additive, relative to HBS-EP + 0.5 M NaCl
[15] = 0.5M, relative to 0.5M NaCl control

T1 sequence (P01308 25-54 limits assumed): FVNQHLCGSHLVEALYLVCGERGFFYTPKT
T1 sequence (P01308 90-110 limits assumed): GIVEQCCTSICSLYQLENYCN
Sequence of Human insulin (I8530), Sigma-Aldrich (human) (P01308 25-54 limits assumed, chain 1 of 2): as the sequence (P01308 25-54 limits assumed) above
T2 sequence (P00921 whole entry): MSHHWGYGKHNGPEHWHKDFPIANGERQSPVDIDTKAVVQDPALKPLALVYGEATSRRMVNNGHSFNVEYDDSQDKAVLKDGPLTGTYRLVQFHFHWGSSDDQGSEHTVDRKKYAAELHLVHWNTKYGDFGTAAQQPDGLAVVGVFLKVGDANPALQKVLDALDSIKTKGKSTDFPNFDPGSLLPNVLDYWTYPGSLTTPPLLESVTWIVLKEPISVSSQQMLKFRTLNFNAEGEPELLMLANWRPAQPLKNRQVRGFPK

Molecule: Cl.N=C(N)NCCC[C@H](N)C(=O)O [ArgHCl, arginine hydrochloride]
ka ([1]; 0.5 M additive in HBS-EP): 12000 M⁻¹ s⁻¹
kd ([1]; 0.5 M additive in HBS-EP): 0.022 s⁻¹
Kd ([1]; 0.5 M additive in HBS-EP, KD ≡ kd/ka): 1.8 µM
ka/ka0 [1, 14]: 0.27
kd/kd0 [1, 14]: 1.6
effect on association rate of insulin and anti-insulin [1, 15]: slowed
effect on dissociation rate of insulin and anti-insulin [1, 15]: accelerated
yield of monomeric protein ([2]; 0.5M added, versus 0.5M NaCl): significantly increased
average aggregate molecular weight (ignoring the monomer) ([2]; 0.5M additive, compared among the three buffers): lowest
A2, percentage of total carbonic anhydrase ([2]; time 2 min, [U]0 = 20 μM): 30%
A3-5, percentage of total carbonic anhydrase ([2]; time 2 min, [U]0 = 20 μM): 25%
A6-15, percentage of total carbonic anhydrase ([2]; time 2 min, [U]0 = 20 μM): 21%
M (monomer), percentage of total carbonic anhydrase ([2]; time 2 min, [U]0 = 20 μM): 22%
Large multimers, percentage of total carbonic anhydrase ([2]; time 2 min, [U]0 = 20 μM): 2%
A2, percentage of total carbonic anhydrase ([2]; time 20 min, [U]0 = 20 μM): 7%
A3-5, percentage of total carbonic anhydrase ([2]; time 20 min, [U]0 = 20 μM): 14%
A6-15, percentage of total carbonic anhydrase ([2]; time 20 min, [U]0 = 20 μM): 26%
M (monomer), percentage of total carbonic anhydrase ([2]; time 20 min, [U]0 = 20 μM): 54%
Large multimers, percentage of total carbonic anhydrase ([2]; time 20 min, [U]0 = 20 μM): −1%
A2, percentage of total carbonic anhydrase ([2]; time 38 min, [U]0 = 20 μM): 4%
A3-5, percentage of total carbonic anhydrase ([2]; time 38 min, [U]0 = 20 μM): 11%
A6-15, percentage of total carbonic anhydrase ([2]; time 38 min, [U]0 = 20 μM): 24%
M (monomer), percentage of total carbonic anhydrase ([2]; time 38 min, [U]0 = 20 μM): 62%
Large multimers, percentage of total carbonic anhydrase ([2]; time 38 min, [U]0 = 20 μM): −1%
A2, percentage of total carbonic anhydrase ([2]; time 1500 min, [U]0 = 20 μM): 0%
A3-5, percentage of total carbonic anhydrase ([2]; time 1500 min, [U]0 = 20 μM): 0%
A6-15, percentage of total carbonic anhydrase ([2]; time 1500 min, [U]0 = 20 μM): 19%
M (monomer), percentage of total carbonic anhydrase ([2]; time 1500 min, [U]0 = 20 μM): 80%
Large multimers, percentage of total carbonic anhydrase ([2]; time 1500 min, [U]0 = 20 μM): 1%
α/α0 [3]: 5.0
α (refolding selectivity parameter, kr/kagg) [3]: 47 µM
order of yield of active protein as a function of buffer additive [3]: NaCl<<ArgHCl<GuHCl

Molecule: [Cl-].[Na+] [NaCl, sodium chloride]
ka ([1]; 0.5 M additive in HBS-EP): 44000 M⁻¹ s⁻¹
kd ([1]; 0.5 M additive in HBS-EP): 0.014 s⁻¹
A2, percentage of total carbonic anhydrase ([2]; time 2 min, [U]0 = 5 μM): 0%
A3-5, percentage of total carbonic anhydrase ([2]; time 2 min, [U]0 = 5 μM): 0%
A6-15, percentage of total carbonic anhydrase ([2]; time 2 min, [U]0 = 5 μM): 0%
M (monomer), percentage of total carbonic anhydrase ([2]; time 2 min, [U]0 = 5 μM): 56%
Large multimers, percentage of total carbonic anhydrase ([2]; time 2 min, [U]0 = 5 μM): 44%
A2, percentage of total carbonic anhydrase ([2]; time 20 min, [U]0 = 5 μM): 0%
A3-5, percentage of total carbonic anhydrase ([2]; time 20 min, [U]0 = 5 μM): 0%
A6-15, percentage of total carbonic anhydrase ([2]; time 20 min, [U]0 = 5 μM): 0%
M (monomer), percentage of total carbonic anhydrase ([2]; time 20 min, [U]0 = 5 μM): 56%
Large multimers, percentage of total carbonic anhydrase ([2]; time 20 min, [U]0 = 5 μM): 44%
A2, percentage of total carbonic anhydrase ([2]; time 38 min, [U]0 = 5 μM): 0%
A3-5, percentage of total carbonic anhydrase ([2]; time 38 min, [U]0 = 5 μM): 0%
A6-15, percentage of total carbonic anhydrase ([2]; time 38 min, [U]0 = 5 μM): 0%
M (monomer), percentage of total carbonic anhydrase ([2]; time 38 min, [U]0 = 5 μM): 56%
Large multimers, percentage of total carbonic anhydrase ([2]; time 38 min, [U]0 = 5 μM): 44%
α/α0 [3]: 1
α (refolding selectivity parameter, kr/kagg) [3]: 9.3 µM
order of yield of active protein as a function of buffer additive [3]: NaCl<<ArgHCl<GuHCl

ka/ka0 [4]: 0.91
kd/kd0 [5]: 6.7
Kd [6]: 2.4 µM
ka/ka0 [7]: 0.27
Kd [8]: 0.32 µM
koff [9]: 0.094 s⁻¹
kon [9]: 40000 M⁻¹ s⁻¹
kd/kd0 [10]: 1.6
koff [11]: 0.022 s⁻¹
kon [11]: 12000 M⁻¹ s⁻¹
Kd [12]: 1.8 µM
koff [13]: 0.014 s⁻¹
kon [13]: 44000 M⁻¹ s⁻¹
Molecule: Monoclonal anti-insulin (10-130 clone M322214), Fitzgerald Industries (antibody)
